In the SangsterLogP compilation:

assay: method code SF-AS, from PMID: 754638; conditions: not given

| SMILES | logP |
| --- | --- |
| CCS(=O)(=O)c1cc(OC)c(OC)c(OC)c1 | 1.05 |
| C=CCS(=O)(=O)c1cc(OC)c(OC)c(OC)c1 | 1.34 |
| COc1cc(S(=O)(=O)CCC(C)C)cc(OC)c1OC | 2.12 |
| COc1cc(S(=O)(=O)CC(O)c2ccccc2)cc(OC)c1OC (centres undefined) | 1.65 |

Further lines, results first:

| logP | SMILES |
| --- | --- |
| 1.29 | COc1cc(S(=O)(=O)CCN2CCOCC2)cc(OC)c1OC |
| 1.56 | CCCS(=O)(=O)c1cc(OC)c(OC)c(OC)c1 |
| 0.18 | COc1cc(S(=O)(=O)CCO)cc(OC)c1OC |

same assay, conditions: pH 7.3

| logD | SMILES |
| --- | --- |
| 2.05 | CCCCN(C)CCS(=O)(=O)c1cc(OC)c(OC)c(OC)c1 |
| 1.6 | COc1cc(S(=O)(=O)CCN2CCCCC2)cc(OC)c1OC |
